Measured values published in patent US5824698A, “Antibacterial dibenzimidazole derivatives” (priority 1994, dated 1998).
Converted amounts (≈) assume the structure as drawn. Where two headings read alike, the source gives them in different places.

Experiments:
Type in all cases: cell-based
B. subtilis ATCC 585369 = test: Antibacterial activity in vitro (MIC, standard agar method); conditions: Bacillus subtilis, ATCC585369, DST agar, 35° C., 20 hours, read-out: Minimum inhibitory concentration (MIC)
Protocol: (§1) The minimum inhibitory concentration (MIC) of the substances investigated against gram-positive and gram-negative strains was determined using standard agar methods. The compounds were dissolved in a small amount of dimethyl sulphoxide, diluted with water and incorporated into liquified DST agar at 50° C. The thus-produced agar plates were used immediately thereafter in the test. The test concentrations lay between 128 and 0.06 μg/ml. The bacterial inoculation solutions were prepared from pre-cultures grown overnight, diluted and applied to the agar surface using an inoculation device (Denley A400). The plates were incubated at 35° C. for 20 hours. The MIC was determined as the lowest concentration of substance which prevented a visible growth. A scarcely visible turbidity and the growth of less than 5 colonies were ignored. The determinations of the antibacterial activities (Tab. 1) were carried out not only for the free bases, but also for the hydrochloride salt of each compound. The same values were obtained within experimental error.

K. oxytoca 1082E = test: as above; conditions: Klebsiella oxytoca, DST agar, 35° C., 20 hours, read-out: Minimum inhibitory concentration (MIC)
Protocol: as §1

[1] = test system: E. coli K12 KEA-12 (GyrA); test: as above; conditions: Escherichia coli, 20 h, read-out: Minimum inhibitory concentration (MIC)
Protocol: as §1

E. coli B = test: as above; conditions: Escherichia coli, DST agar, 35° C., 20 hours, read-out: Minimum inhibitory concentration (MIC)
Protocol: as §1

E. faecalis 6 = test: as above; conditions: read-out: Minimum inhibitory concentration (MIC)
Protocol: as §1

E. coli AS-19 = test: as above; conditions: Escherichia coli, AS19, DST agar, 35° C., 20 hours, read-out: Minimum inhibitory concentration (MIC)
Protocol: as §1

E. cloacae P 99 = test: as above; conditions: Enterobacter cloacae, P99, 20 h, read-out: Minimum inhibitory concentration (MIC)
Protocol: as §1

Staph. aureus 887 = test: as above; conditions: Staphylococcus aureus, DST agar, 35° C., 20 hours, read-out: Minimum inhibitory concentration (MIC)
Protocol: as §1

E. coli 25922 = test: as above; conditions: read-out: Minimum inhibitory concentration (MIC)
Protocol: as §1

E. coli 1346 = test: as above; conditions: Escherichia coli, DST agar, 35° C., 20 hours, read-out: Minimum inhibitory concentration (MIC)
Protocol: as §1

S. marcescens = test: as above; conditions: Serratia marcescens, 20 h, read-out: Minimum inhibitory concentration (MIC)
Protocol: as §1

P. aeroguinosa 3351 = test: as above; conditions: 20 h, read-out: Minimum inhibitory concentration (MIC)
Protocol: as §1

P. aeroginosa BA = test: as above; conditions: DST agar, 35° C., 20 hours, read-out: Minimum inhibitory concentration (MIC)
Protocol: as §1

P. aeruginosa 799/61 = test: as above; conditions: Pseudomonas aeruginosa, 799/61, 20 h, read-out: Minimum inhibitory concentration (MIC)
Protocol: as §1

E. coli 1527 E = test: as above; conditions: Escherichia coli, read-out: Minimum inhibitory concentration (MIC)
Protocol: as §1

E. coli DC2 = test: as above; conditions: Escherichia coli, read-out: Minimum inhibitory concentration (MIC)
Protocol: as §1

Staph. aureus 25923 = test: as above; conditions: Staphylococcus aureus, DST agar, 35° C., 20 hours, read-out: Minimum inhibitory concentration (MIC)
Protocol: as §1

Staph. haemolyticus 75 = test: as above; conditions: Staphylococcus haemolyticus, DST agar, 35° C., 20 hours, read-out: Minimum inhibitory concentration (MIC)
Protocol: as §1

E. coli H560 = test: as above; conditions: Escherichia coli, H560, 20 h, read-out: Minimum inhibitory concentration (MIC)
Protocol: as §1

E. coli 159 R = test: as above; conditions: Escherichia coli, 159R, 20 h, read-out: Minimum inhibitory concentration (MIC)
Protocol: as §1

S. aureus 853 = test: as above; conditions: Staphylococcus aureus, DST agar, 35° C., 20 hours, read-out: Minimum inhibitory concentration (MIC)
Protocol: as §1

S. aureus 101 = test: as above; conditions: Staphylococcus aureus, DST agar, 35° C., 20 hours, read-out: Minimum inhibitory concentration (MIC)
Protocol: as §1

[2] = test system: Helicobacter pylori PH 81; test: Antibacterial activity against Helicobacter pylori in vitro (MIC, agar method); conditions: PH81, H. pylori PH 81, Muller-Hinton agar, 5% sheep blood, incubation 7 days, read-out: Minimum inhibitory concentration (MIC)
Protocol: as §1
(§2) The antibacterial activities against Helicobacter pylori were carried out analogously to the method described above with the following variations: The compounds were incorporated into Muller-Hinton agar containing 5% sheep blood additive. The test concentrations lay between 10 and 0.1 μg/ml. […]

[3] = test system: Helicobacter pylori K 1585; test: as above; conditions: K1585, H. pylori K 1585, Muller-Hinton agar, 5% sheep blood, incubation 4 days, read-out: Minimum inhibitory concentration (MIC)
Protocol: as §1, §2

[4] = Enterococcus faecalis, E. faecalis 6, DST agar, 35° C., 20 hours
[5] = Escherichia coli, E. coli 25922, DST agar, 35° C., 20 hours
[6] = E. coli DC2, DST agar, 35° C., 20 hours

Structure (SMILES) | MIC (B. subtilis ATCC 585369) | MIC (K. oxytoca 1082E) | MIC [1] | MIC (E. coli B) | MIC (E. faecalis 6; [4]) | MIC (E. coli AS-19) | MIC (E. cloacae P 99) | MIC (Staph. aureus 887) | MIC (E. coli 25922; [5]) | MIC (E. coli 1346) | MIC (S. marcescens) | MIC (P. aeroguinosa 3351) | MIC (P. aeroginosa BA) | MIC (P. aeruginosa 799/61) | MIC (E. coli DC2; [6]) | MIC (Staph. aureus 25923) | MIC (Staph. haemolyticus 75) | MIC (E. coli H560) | MIC (E. coli 159 R) | MIC (E. coli 25922; Escherichia coli, 25922, 20 h) | also measured
Nc1ccc(-c2nc3ccc(-c4ccc5nc(-c6ccc(N)cc6)[nH]c5c4)cc3[nH]2)cc1 [Example 7, 4-[2'-(4-Amino-phenyl)-6,6'-dibenzimidazol-2-yl]-phenylamine] | 2 µg/mL (≈ 4.8 µM) | > 128 µg/mL | > 128 µg/mL | 0.25 µg/mL (≈ 0.6 µM) | ≤ 0.12 µg/mL | 4 µg/mL (≈ 9.6 µM) | > 128 µg/mL | 2 µg/mL (≈ 4.8 µM) | > 128 µg/mL | ≤ 0.12 µg/mL | > 128 µg/mL | > 128 µg/mL | > 128 µg/mL | > 128 µg/mL | ≤ 0.12 µg/mL | 1 µg/mL (≈ 2.4 µM) | > 0.12 µg/mL | > 128 µg/mL | – | – | MIC (E. coli 1527 E; 1527E, 20 h): > 128 µg/mL
N#Cc1ccc(-c2nc3ccc(-c4ccc5nc(-c6ccc(O)cc6)[nH]c5c4)cc3[nH]2)cc1 [Example 12, 4-[2'-(4-Hydroxy-phenyl)-6,6'-dibenzimidazol-2-yl]-benzonitrile] | 2 µg/mL (≈ 4.68 µM) | > 128 µg/mL | > 128 µg/mL | 2 µg/mL (≈ 4.68 µM) | 4 µg/mL (≈ 9.36 µM) | 32 µg/mL (≈ 74.9 µM) | > 128 µg/mL | 2 µg/mL (≈ 4.68 µM) | > 128 µg/mL | 1 µg/mL (≈ 2.34 µM) | – | > 128 µg/mL | > 128 µg/mL | > 128 µg/mL | 8 µg/mL (≈ 18.7 µM) | 1 µg/mL (≈ 2.34 µM) | 0.25 µg/mL (≈ 0.585 µM) | > 128 µg/mL | > 128 µg/mL | – | MIC (S. aureus 853): 2 µg/mL (≈ 4.68 µM); MIC (S. aureus 101): 4 µg/mL (≈ 9.36 µM)
COc1ccc(-c2nc3ccc(-c4ccc5nc(-c6ccc(OC)cc6)[nH]c5c4)cc3[nH]2)cc1 [Example 8, 2,2'-Bis-(4-methoxy-phenyl)-6,6'-dibenzimidazole] | 0.5 µg/mL (≈ 1.12 µM) | > 128 µg/mL | > 128 µg/mL | 8 µg/mL (≈ 17.9 µM) | – | 32 µg/mL (≈ 71.7 µM) | > 128 µg/mL | 0.5 µg/mL (≈ 1.12 µM) | – | 8 µg/mL (≈ 17.9 µM) | > 128 µg/mL | > 128 µg/mL | > 128 µg/mL | > 128 µg/mL | 64 µg/mL (≈ 143 µM) | 1 µg/mL (≈ 2.24 µM) | ≤ 0.25 µg/mL | > 128 µg/mL | – | > 128 µg/mL | MIC (E. faecalis 6; Enterococcus faecalis, 6, 20 h): > 128 µg/mL; MIC (E. coli 1527 E; E. coli 1527 E, DST agar, 35° C., 20 hours): > 12 µg/mL
Cc1cc(-c2nc3ccc(-c4ccc5nc(-c6ccc(O)c(C)c6)[nH]c5c4)cc3[nH]2)ccc1O [Example 2] | – | > 128 µg/mL | > 128 µg/mL | 0.5 µg/mL (≈ 1.12 µM) | ≤ 0.25 µg/mL | 4 µg/mL (≈ 8.96 µM) | > 128 µg/mL | ≤ 0.25 µg/mL | – | 2 µg/mL (≈ 4.48 µM) | – | > 128 µg/mL | > 128 µg/mL | > 128 µg/mL | 4 µg/mL (≈ 8.96 µM) | ≤ 0.25 µg/mL | ≤ 0.25 µg/mL | > 128 µg/mL | > 128 µg/mL | 128 µg/mL (≈ 287 µM) | MIC [2]: < 0.1 µg/mL; MIC [3]: 1 µg/mL (≈ 2.24 µM); MIC (S. aureus 853): ≤ 0.25 µg/mL; MIC (S. aureus 101): 0.5 µg/mL (≈ 1.12 µM)
CCOc1ccc(-c2nc3ccc(-c4ccc5nc(-c6ccc(OCC)cc6)[nH]c5c4)cc3[nH]2)cc1 [Example 9, 2,2'-Bis-(4-ethoxy-phenyl)-6,6'-dibenzimidazole] | ≤ 0.5 µg/mL | > 128 µg/mL | > 128 µg/mL | > 128 µg/mL | 64 µg/mL (≈ 135 µM) | > 128 µg/mL | > 128 µg/mL | ≤ 0.5 µg/mL | – | 16 µg/mL (≈ 33.7 µM) | > 128 µg/mL | > 128 µg/mL | > 128 µg/mL | > 128 µg/mL | – | 2 µg/mL (≈ 4.21 µM) | 1 µg/mL (≈ 2.11 µM) | > 128 µg/mL | > 128 µg/mL | > 128 µg/mL | MIC (E. coli 1527 E; 1527E, 20 h): > 128 µg/mL; MIC (E. coli DC2; DC2, 20 h): > 128 µg/mL
